Article PMC5766581, “NF-κB inducing kinase is a therapeutic target for systemic lupus erythematosus” (Nature Communications, 2018)

Tests used:
Assay in all cases: SelectScreen kinase panel
Format in all cases: binding
[1] = biological target: T1, ALK2 (Homo sapiens, UniProt Q04771)
T1 construct: purchased Invitrogen / ThermoFisher SelectScreen
Description: (§1) The ability of NIK to catalyze the hydrolysis of adenosine-5′-triphosphate (ATP) was monitored using the Transcreener ADP (adenosine-5′-diphosphate) assay (Bell Brook Labs, Fitchburg, WI). Purified human NIK kinase domain (a.a. 340–694) (0.5 nM) or mouse NIK kinase domain (a.a. 329–675) (1 nM) derived from a baculovirus-infected insect cell expression system was incubated with test compounds for 0.5–2 h in 50 mM HEPES buffer (pH 7.2) containing 10 mM MgCl2, 2 mM dithiothreitol, 10 μM ATP, 0.01% Triton X-100, 0.1% gamma-globulins from bovine blood, 1% dimethylsulfoxide (DMSO), 7 μg/mL ADP antibody and 5 nM ADP-MR121 633 tracer. Reactions were quenched by the addition of 20 mM EDTA and 0.01% Brij 35. The tracer bound to the antibody was displaced by the ADP generated during the NIK reaction, which caused a decrease in fluorescence polarization that was measured by laser excitation at 633 nm with a Fluorescence Correlation Spectroscopy Plus reader (Evotec AG). Equilibrium dissociation constant (Ki) values for NIK inhibitors are calculated from plots of activity vs. inhibitor concentration using Morrison’s quadratic equation that accounts for the potential of tight binding, and by also applying the conversion factor that accounted for competitive inhibition and the concentration of substrate used in the assay relative to its Michaelis constant (Km). The Ki values with hPKD1 (PKCμ) were determined using the same assay conditions as for NIK. Ki measurements for hKHS1 and hLRRK2, as well as broad kinase selectivity profiling for SMI1, were carried out by Invitrogen using their SelectScreen kinase assay panel (ThermoFisher Scientific, Madison, WI). The vendor offered two types of kinase activity assays, a peptide phosphorylation assay (Z′-LYTE) and an ADP quantitation assay (Adapta), as well as one type of kinase ATP site competitive binding assay (LanthaScreen). See vendor web site for technology and protocol details for each specific kinase assay.
(§2) The average % Inhibition of each kinase is reported (Supplementary Table 1).

[2] = biological target: T2, ASK1 (Homo sapiens, UniProt Q99683)
T2 construct: purchased Invitrogen / ThermoFisher SelectScreen
Description: as §1, §2

[3] = biological target: T3, AVCR2B (Homo sapiens, UniProt Q13705)
T3 construct: purchased Invitrogen / ThermoFisher SelectScreen
Description: as §1, §2

[4] = biological target: T4, B -Raf (Homo sapiens, UniProt P15056)
T4 construct: purchased Invitrogen / ThermoFisher SelectScreen
Description: as §1, §2

[5] = biological target: T5, BMPR1A (Homo sapiens, UniProt P36894)
T5 construct: purchased Invitrogen / ThermoFisher SelectScreen
Description: as §1, §2

[6] = biological target: T6, CAMKK1 (Homo sapiens, UniProt Q8N5S9)
T6 construct: purchased Invitrogen / ThermoFisher SelectScreen
Description: as §1, §2

[7] = biological target: T7, CDK8/cyclinC (Homo sapiens, UniProt P49336)
T7 construct: purchased Invitrogen / ThermoFisher SelectScreen
Description: as §1, §2

[8] = biological target: T8, CLK4 (Homo sapiens, UniProt Q9HAZ1)
T8 construct: purchased Invitrogen / ThermoFisher SelectScreen
Description: as §1, §2

[9] = biological target: T9, DDR1 (Homo sapiens, UniProt Q08345)
T9 construct: purchased Invitrogen / ThermoFisher SelectScreen
Description: as §1, §2

[10] = biological target: T10, DMPK (Homo sapiens, UniProt Q09013)
T10 construct: purchased Invitrogen / ThermoFisher SelectScreen
Description: as §1, §2

[11] = biological target: T11, DRAK1 (Homo sapiens, UniProt Q9UEE5)
T11 construct: purchased Invitrogen / ThermoFisher SelectScreen
Description: as §1, §2

[12] = biological target: T12, JNK2 (Homo sapiens, UniProt P45984)
T12 construct: purchased Invitrogen / ThermoFisher SelectScreen
Description: as §1, §2

[13] = biological target: T13, LIMK1 (Homo sapiens, UniProt P53667)
T13 construct: purchased Invitrogen / ThermoFisher SelectScreen
Description: as §1, §2

[14] = biological target: T14, MEK3 (Homo sapiens, UniProt P46734)
T14 construct: purchased Invitrogen / ThermoFisher SelectScreen
Description: as §1, §2

[15] = biological target: T15, MEKK2 (Homo sapiens, UniProt Q9Y2U5)
T15 construct: purchased Invitrogen / ThermoFisher SelectScreen
Description: as §1, §2

[16] = biological target: T16, MKK6 (Homo sapiens, UniProt P52564)
T16 construct: purchased Invitrogen / ThermoFisher SelectScreen
Description: as §1, §2

[17] = biological target: T17, MKNK2 (Homo sapiens, UniProt Q9HBH9)
T17 construct: purchased Invitrogen / ThermoFisher SelectScreen
Description: as §1, §2

[18] = biological target: T18, MLK2 (Homo sapiens, UniProt Q02779)
T18 construct: purchased Invitrogen / ThermoFisher SelectScreen
Description: as §1, §2

[19] = biological target: T19, MYLK (Homo sapiens, UniProt Q15746)
T19 construct: purchased Invitrogen / ThermoFisher SelectScreen
Description: as §1, §2

[20] = biological target: T20, MYLK3 (Homo sapiens, UniProt Q32MK0)
T20 construct: purchased Invitrogen / ThermoFisher SelectScreen
Description: as §1, §2

[21] = biological target: T21, NLK (Homo sapiens, UniProt Q9UBE8)
T21 construct: purchased Invitrogen / ThermoFisher SelectScreen
Description: as §1, §2

[22] = biological target: T22, RAF1 (Y340D, Y341D) (Homo sapiens, UniProt P04049, Y340D/Y341D)
T22 construct: purchased Invitrogen / ThermoFisher SelectScreen
Description: as §1, §2

[23] = biological target: T23, RIPK2 (Homo sapiens, UniProt O43353)
T23 construct: purchased Invitrogen / ThermoFisher SelectScreen
Description: as §1, §2

[24] = biological target: T24, SLK (Homo sapiens, UniProt Q9H2G2)
T24 construct: purchased Invitrogen / ThermoFisher SelectScreen
Description: as §1, §2

[25] = biological target: T25, STK16 (Homo sapiens, UniProt O75716)
T25 construct: purchased Invitrogen / ThermoFisher SelectScreen
Description: as §1, §2

[26] = biological target: T26, STK33 (Homo sapiens, UniProt Q9BYT3)
T26 construct: purchased Invitrogen / ThermoFisher SelectScreen
Description: as §1, §2

[27] = biological target: T27, TAK1-TAB1 (Homo sapiens, UniProt O43318)
T27 construct: purchased Invitrogen / ThermoFisher SelectScreen
Description: as §1, §2

[28] = biological target: T28, TEC (Homo sapiens, UniProt P42680)
T28 construct: purchased Invitrogen / ThermoFisher SelectScreen
Description: as §1, §2

[29] = biological target: T29, TGFBR1 (Homo sapiens, UniProt P36897)
T29 construct: purchased Invitrogen / ThermoFisher SelectScreen
Description: as §1, §2

[30] = biological target: T30, TNK2 (Homo sapiens, UniProt Q07912)
T30 construct: purchased Invitrogen / ThermoFisher SelectScreen
Description: as §1, §2

[31] = biological target: T31, TTK (Homo sapiens, UniProt P33981)
T31 construct: purchased Invitrogen / ThermoFisher SelectScreen
Description: as §1, §2

[32] = biological target: T32, WEE1 (Homo sapiens, UniProt P30291)
T32 construct: purchased Invitrogen / ThermoFisher SelectScreen
Description: as §1, §2

[33] = biological target: T33, WNK2 (Homo sapiens, UniProt Q9Y3S1)
T33 construct: purchased Invitrogen / ThermoFisher SelectScreen
Description: as §1, §2

T33 sequence (Q9Y3S1 whole entry): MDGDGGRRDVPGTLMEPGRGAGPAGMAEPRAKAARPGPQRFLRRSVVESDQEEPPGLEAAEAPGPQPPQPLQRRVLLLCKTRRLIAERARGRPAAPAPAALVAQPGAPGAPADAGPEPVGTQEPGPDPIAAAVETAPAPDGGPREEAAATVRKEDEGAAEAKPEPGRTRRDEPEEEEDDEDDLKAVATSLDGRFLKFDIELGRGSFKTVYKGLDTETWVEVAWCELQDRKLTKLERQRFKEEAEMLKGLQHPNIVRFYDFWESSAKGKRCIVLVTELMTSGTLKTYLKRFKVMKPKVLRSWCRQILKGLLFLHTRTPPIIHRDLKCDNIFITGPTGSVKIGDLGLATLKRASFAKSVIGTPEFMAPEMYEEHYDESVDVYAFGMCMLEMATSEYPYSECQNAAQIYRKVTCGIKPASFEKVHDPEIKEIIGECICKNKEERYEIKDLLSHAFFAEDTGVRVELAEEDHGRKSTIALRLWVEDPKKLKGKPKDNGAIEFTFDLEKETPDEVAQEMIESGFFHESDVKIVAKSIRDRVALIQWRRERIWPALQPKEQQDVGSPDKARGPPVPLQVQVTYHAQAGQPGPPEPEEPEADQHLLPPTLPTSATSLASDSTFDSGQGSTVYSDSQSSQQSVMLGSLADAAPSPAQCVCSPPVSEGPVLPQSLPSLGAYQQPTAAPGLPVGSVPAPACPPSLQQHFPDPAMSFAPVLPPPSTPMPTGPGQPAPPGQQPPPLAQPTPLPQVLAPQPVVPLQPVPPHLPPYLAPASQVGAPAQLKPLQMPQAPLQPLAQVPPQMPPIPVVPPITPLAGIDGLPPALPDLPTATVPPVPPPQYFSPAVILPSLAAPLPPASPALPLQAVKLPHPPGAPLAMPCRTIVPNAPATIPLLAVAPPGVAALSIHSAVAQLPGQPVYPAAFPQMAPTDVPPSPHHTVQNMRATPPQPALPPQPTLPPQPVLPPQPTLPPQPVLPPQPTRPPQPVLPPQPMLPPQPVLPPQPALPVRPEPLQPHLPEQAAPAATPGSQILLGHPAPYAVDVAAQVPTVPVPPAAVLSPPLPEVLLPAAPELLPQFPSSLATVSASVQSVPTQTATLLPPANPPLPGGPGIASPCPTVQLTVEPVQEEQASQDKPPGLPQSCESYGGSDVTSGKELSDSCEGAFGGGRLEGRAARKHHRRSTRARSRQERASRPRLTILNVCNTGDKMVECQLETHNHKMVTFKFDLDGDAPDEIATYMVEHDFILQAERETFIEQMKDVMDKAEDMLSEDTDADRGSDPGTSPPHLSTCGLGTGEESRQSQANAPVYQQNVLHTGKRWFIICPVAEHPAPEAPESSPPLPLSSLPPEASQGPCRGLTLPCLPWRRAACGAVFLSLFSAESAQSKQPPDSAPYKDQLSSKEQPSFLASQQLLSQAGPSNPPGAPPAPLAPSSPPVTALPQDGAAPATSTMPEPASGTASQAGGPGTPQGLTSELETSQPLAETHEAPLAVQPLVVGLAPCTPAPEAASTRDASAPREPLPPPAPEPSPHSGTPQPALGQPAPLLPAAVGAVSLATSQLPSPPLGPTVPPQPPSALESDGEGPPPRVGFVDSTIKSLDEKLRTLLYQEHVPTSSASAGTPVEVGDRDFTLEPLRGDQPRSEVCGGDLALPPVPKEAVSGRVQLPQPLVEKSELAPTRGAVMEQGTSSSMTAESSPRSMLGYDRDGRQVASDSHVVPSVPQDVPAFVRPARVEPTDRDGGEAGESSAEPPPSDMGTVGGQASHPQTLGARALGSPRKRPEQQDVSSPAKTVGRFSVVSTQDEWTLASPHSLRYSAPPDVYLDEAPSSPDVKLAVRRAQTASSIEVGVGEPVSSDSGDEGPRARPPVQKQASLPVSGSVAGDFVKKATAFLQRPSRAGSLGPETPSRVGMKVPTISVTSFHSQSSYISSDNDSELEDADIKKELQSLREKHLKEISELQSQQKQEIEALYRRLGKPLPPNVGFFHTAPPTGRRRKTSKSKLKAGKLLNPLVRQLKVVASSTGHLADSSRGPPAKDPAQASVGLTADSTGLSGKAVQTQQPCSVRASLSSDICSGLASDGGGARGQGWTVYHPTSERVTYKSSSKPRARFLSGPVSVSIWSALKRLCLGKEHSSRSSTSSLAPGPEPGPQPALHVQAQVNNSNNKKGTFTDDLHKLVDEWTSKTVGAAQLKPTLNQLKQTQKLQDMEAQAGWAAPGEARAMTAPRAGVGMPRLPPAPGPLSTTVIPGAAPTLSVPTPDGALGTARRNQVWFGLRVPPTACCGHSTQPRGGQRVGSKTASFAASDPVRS
T19 sequence (Q15746 whole entry): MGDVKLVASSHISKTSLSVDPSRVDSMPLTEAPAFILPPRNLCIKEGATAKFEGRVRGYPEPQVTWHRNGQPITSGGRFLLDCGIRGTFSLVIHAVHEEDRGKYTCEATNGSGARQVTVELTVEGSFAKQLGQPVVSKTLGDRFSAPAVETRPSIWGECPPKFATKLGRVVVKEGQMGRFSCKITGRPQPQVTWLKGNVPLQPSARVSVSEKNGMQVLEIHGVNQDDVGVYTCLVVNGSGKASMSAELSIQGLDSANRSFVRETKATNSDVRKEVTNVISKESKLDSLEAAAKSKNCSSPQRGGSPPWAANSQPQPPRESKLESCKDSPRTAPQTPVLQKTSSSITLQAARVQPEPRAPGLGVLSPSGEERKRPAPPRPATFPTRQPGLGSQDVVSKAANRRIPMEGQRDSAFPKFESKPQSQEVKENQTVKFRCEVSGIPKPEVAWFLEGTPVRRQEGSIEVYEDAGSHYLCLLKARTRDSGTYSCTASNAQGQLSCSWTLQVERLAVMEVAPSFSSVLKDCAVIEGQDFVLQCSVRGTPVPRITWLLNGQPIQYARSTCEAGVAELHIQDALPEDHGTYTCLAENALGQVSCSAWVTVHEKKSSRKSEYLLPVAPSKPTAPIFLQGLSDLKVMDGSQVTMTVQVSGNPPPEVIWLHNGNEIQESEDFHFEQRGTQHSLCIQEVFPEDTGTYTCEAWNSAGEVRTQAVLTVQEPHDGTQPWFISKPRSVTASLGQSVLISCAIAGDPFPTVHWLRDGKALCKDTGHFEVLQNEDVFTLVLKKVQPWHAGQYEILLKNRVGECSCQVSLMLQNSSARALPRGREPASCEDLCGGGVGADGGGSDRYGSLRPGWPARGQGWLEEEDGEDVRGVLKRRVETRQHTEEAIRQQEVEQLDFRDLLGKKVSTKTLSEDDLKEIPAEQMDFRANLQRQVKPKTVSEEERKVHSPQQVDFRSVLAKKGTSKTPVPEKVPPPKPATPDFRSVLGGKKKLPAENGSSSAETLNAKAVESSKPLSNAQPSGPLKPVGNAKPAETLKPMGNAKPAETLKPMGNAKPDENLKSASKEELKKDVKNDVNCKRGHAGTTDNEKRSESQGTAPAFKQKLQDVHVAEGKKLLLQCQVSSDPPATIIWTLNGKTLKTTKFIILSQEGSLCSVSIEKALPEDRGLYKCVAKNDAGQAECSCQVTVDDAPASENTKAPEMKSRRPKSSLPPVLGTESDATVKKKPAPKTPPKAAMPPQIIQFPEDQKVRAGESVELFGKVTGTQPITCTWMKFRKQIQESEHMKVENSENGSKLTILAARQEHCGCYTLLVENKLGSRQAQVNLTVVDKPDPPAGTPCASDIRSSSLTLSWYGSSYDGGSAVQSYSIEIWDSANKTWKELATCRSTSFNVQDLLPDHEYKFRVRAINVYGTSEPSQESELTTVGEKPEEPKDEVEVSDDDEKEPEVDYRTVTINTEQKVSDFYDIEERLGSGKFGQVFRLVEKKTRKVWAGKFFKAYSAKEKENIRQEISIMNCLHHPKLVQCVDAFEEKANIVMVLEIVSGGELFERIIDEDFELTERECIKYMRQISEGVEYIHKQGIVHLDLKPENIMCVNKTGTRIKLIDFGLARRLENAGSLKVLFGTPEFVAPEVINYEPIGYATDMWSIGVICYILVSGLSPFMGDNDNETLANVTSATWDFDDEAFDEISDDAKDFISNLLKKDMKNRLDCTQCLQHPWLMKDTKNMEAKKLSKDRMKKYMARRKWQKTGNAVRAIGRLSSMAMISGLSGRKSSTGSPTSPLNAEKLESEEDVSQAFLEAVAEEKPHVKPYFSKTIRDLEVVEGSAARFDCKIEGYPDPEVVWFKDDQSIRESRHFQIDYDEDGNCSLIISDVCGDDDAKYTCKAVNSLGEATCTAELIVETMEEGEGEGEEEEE
T1 sequence (Q04771 21-509): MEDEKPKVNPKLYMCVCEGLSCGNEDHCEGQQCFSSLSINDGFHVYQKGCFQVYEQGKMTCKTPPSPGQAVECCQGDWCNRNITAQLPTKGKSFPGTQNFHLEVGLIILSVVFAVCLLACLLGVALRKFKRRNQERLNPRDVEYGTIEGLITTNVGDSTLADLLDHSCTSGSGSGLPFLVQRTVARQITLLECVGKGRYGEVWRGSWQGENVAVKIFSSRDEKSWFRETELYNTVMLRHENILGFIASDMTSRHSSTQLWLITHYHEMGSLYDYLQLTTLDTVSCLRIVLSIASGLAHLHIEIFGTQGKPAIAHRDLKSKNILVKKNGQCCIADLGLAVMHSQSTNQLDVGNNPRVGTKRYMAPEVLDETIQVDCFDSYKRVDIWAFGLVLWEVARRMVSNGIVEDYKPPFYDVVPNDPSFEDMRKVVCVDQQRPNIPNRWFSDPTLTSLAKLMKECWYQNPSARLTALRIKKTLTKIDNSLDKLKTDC
T27 sequence (O43318 with tags, fused parts or gaps limits assumed): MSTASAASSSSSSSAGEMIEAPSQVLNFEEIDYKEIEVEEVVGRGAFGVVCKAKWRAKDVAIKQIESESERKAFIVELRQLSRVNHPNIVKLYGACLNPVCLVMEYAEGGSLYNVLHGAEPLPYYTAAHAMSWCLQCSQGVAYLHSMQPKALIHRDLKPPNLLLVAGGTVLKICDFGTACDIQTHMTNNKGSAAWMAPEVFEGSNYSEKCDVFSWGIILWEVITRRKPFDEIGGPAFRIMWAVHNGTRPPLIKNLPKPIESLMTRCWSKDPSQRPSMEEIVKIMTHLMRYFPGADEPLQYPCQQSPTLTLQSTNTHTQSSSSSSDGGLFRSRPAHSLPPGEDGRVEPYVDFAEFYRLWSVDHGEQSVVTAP

`COc1cc(C(N)=O)nc(-c2cccc(C#C[C@]3(O)CCN(C)C3=O)c2)c1` [NIK SMI1] showed an inhibition at 1 µM [1] of 5.8%, an inhibition at 1 µM [2] of 3.8% and an inhibition at 1 µM [3] of 0.8%. It also gave an inhibition at 1 µM [4] of -0.3%, an inhibition at 1 µM [5] of -3.9% and an inhibition at 1 µM [6] of -11.6%. The inhibition at 1 µM [7] was 7.8%, the inhibition at 1 µM [8] was 13.7% and the inhibition at 1 µM [9] was 2.7%. The inhibition at 1 µM [10] was 1.6%, the inhibition at 1 µM [11] was 3.4% and the inhibition at 1 µM [12] was 3%. For the same compound, the inhibition at 1 µM [13] was 16.8%, the inhibition at 1 µM [14] was 11.4% and the inhibition at 1 µM [15] was 66.8%. The inhibition at 1 µM [16] was 13.2%, the inhibition at 1 µM [17] was 23.3% and the inhibition at 1 µM [18] was 9.9%. The inhibition at 1 µM [19] was 7.5%, the inhibition at 1 µM [20] was 45.3% and the inhibition at 1 µM [21] was 4.2%. For the same compound, the inhibition at 1 µM [22] was -1.5%, the inhibition at 1 µM [23] was -0.1% and the inhibition at 1 µM [24] was 2.6%. The inhibition at 1 µM [25] was 1%, the inhibition at 1 µM [26] was 3.9% and the inhibition at 1 µM [27] was 31.1%. The inhibition at 1 µM [28] was 1.1%, the inhibition at 1 µM [29] was -9.4% and the inhibition at 1 µM [30] was 0.1%. For the same compound, the inhibition at 1 µM [31] was 13.2%, the inhibition at 1 µM [32] was 6.2% and the inhibition at 1 µM [33] was 1.7%.
